Measured values published in patent EP4722207A1, “OXOISOINDOLINYL-SUBSTITUTED TETRAHYDROPYRIMIDINEDIONE DERIVATIVE AND USE THEREOF” (Gluetacs Therapeutics (Shanghai) Co., Ltd., priority 2023, dated 2024).

What was measured:
WEE1 = target: T1, WEE1 (Homo sapiens, UniProt P30291+Q96SW2); assay: Western-blot assay, substrate protein degradation in hPBMCs: WEE1; type: cell-based; details: compounds at 50 nM and 500 nM, 24 hours
T1 construct: effects of the compounds of the present disclosure on the expression of target proteins in cells; endogenous in cells; host or cells: human PBMCs (hPBMCs)
T1 sequence (P30291 whole entry): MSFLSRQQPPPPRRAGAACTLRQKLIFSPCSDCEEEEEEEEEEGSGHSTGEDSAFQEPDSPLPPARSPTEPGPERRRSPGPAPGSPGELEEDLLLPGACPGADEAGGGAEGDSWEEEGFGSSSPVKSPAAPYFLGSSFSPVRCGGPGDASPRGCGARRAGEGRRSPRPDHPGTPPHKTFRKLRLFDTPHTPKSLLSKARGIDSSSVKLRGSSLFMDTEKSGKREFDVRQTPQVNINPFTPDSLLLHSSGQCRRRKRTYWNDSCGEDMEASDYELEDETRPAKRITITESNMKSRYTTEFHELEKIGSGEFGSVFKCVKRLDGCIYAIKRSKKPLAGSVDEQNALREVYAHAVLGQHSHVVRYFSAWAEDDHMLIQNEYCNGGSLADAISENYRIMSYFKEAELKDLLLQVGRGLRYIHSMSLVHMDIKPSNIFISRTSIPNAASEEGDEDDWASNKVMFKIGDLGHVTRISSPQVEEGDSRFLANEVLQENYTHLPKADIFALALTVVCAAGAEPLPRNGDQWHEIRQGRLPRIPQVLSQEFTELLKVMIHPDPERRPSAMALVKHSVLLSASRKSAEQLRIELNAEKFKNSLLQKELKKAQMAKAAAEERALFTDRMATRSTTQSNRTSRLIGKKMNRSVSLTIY
T1 sequence (Q96SW2 whole entry): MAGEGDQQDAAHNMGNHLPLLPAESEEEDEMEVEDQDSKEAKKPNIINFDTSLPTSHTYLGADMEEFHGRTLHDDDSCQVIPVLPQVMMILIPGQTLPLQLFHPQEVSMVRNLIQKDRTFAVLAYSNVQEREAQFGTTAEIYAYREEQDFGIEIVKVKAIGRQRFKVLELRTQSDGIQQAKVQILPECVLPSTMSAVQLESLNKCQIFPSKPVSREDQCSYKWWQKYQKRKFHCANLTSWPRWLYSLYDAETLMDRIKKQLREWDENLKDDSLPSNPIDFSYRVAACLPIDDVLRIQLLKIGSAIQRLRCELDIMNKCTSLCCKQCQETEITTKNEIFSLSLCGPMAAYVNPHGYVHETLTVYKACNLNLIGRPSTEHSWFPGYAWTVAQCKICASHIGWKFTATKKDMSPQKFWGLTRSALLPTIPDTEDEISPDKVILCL
T1 sequence (Q16531 whole entry partner): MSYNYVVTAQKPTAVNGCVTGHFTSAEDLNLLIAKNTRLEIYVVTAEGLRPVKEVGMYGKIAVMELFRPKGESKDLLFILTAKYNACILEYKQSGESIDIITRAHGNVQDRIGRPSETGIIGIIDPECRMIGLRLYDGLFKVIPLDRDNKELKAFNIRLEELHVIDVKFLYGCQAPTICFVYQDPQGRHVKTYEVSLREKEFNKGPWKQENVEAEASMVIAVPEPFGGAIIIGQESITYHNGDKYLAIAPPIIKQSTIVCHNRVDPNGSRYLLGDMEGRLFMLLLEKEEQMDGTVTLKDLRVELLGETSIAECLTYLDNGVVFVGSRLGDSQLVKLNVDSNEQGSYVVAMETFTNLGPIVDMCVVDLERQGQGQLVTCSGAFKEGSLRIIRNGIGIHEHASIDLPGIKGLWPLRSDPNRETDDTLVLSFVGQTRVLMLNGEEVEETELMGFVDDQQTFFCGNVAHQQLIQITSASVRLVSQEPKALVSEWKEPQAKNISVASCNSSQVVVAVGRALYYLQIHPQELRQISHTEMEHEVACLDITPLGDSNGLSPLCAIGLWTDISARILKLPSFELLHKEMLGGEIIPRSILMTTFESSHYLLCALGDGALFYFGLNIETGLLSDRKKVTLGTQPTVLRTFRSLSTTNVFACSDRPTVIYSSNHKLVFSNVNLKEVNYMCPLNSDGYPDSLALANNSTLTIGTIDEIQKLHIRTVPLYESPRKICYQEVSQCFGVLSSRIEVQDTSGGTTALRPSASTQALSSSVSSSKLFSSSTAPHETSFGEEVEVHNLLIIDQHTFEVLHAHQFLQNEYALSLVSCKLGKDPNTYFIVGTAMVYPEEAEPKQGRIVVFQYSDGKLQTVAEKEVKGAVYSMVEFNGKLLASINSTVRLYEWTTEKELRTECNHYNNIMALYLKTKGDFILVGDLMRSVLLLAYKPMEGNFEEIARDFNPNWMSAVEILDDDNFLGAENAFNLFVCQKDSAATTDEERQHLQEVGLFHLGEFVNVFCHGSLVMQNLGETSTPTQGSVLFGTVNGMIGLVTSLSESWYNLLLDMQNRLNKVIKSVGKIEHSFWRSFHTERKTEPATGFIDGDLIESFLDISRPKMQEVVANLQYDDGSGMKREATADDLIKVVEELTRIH

IKZF1 = target: T2, IKZF1 (Homo sapiens, UniProt Q13422+Q96SW2); assay: Western-blot assay, substrate protein degradation in hPBMCs: IKZF1; type: cell-based; details: compounds at 50 nM and 500 nM, 24 hours
T2 construct: effects of the compounds of the present disclosure on the expression of target proteins in cells; endogenous in cells; host or cells: human PBMCs (hPBMCs)
T2 sequence (Q13422 whole entry): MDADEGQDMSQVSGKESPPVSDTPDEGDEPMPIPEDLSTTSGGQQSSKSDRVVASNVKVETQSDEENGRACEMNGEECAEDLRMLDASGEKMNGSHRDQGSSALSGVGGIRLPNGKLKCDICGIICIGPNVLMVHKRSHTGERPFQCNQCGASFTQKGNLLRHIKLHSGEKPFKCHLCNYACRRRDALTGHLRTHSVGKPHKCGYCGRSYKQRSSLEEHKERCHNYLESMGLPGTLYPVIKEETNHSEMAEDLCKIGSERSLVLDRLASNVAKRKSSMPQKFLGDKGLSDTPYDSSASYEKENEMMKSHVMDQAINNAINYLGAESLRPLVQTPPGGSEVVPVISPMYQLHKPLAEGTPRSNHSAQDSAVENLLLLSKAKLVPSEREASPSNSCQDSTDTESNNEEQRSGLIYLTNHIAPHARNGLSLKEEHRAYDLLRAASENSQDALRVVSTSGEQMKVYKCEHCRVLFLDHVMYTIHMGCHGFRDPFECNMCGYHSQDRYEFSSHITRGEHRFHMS
T2 sequence (Q96SW2 whole entry): as the sequence (Q96SW2 whole entry) above
T2 sequence (Q16531 whole entry partner): as the sequence (Q16531 whole entry partner) above

IKZF2 = target: T3, IKZF2 (Homo sapiens, UniProt Q96SW2+Q9UKS7); assay: Western-blot assay, substrate protein degradation in hPBMCs: IKZF2; type: cell-based; details: compounds at 50 nM and 500 nM, 24 hours
T3 construct: effects of the compounds of the present disclosure on the expression of target proteins in cells; endogenous in cells; host or cells: human PBMCs (hPBMCs)
T3 sequence (Q9UKS7 whole entry): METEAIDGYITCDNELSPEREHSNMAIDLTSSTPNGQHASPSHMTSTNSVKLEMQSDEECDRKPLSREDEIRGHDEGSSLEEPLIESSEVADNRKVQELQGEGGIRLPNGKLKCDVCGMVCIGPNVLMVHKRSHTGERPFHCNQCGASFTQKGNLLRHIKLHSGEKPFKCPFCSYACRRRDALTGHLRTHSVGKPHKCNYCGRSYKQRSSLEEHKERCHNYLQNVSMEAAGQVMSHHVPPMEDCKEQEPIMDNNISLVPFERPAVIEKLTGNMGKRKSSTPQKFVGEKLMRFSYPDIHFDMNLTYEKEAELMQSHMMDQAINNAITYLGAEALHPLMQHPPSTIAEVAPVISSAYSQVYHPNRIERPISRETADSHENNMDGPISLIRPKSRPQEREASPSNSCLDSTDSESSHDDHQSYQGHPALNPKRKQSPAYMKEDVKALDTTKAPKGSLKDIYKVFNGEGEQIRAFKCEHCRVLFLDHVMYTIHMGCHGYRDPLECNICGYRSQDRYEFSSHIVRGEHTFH
T3 sequence (Q96SW2 whole entry): as the sequence (Q96SW2 whole entry) above
T3 sequence (Q16531 whole entry partner): as the sequence (Q16531 whole entry partner) above

IKZF3 = target: T4, IKZF3 (Homo sapiens, UniProt Q96SW2+Q9UKT9); assay: Western-blot assay, substrate protein degradation in hPBMCs: IKZF3; type: cell-based; details: compounds at 50 nM and 500 nM, 24 hours
T4 construct: effects of the compounds of the present disclosure on the expression of target proteins in cells; endogenous in cells; host or cells: human PBMCs (hPBMCs)

CK1α = target: T5, CK1α (Homo sapiens, UniProt P48729+Q96SW2); assay: Western-blot assay, substrate protein degradation in hPBMCs: CK1α; type: cell-based; details: compounds at 50 nM and 500 nM, 24 hours
T5 construct: effects of the compounds of the present disclosure on the expression of target proteins in cells; endogenous in cells; host or cells: human PBMCs (hPBMCs)
T5 sequence (P48729 whole entry): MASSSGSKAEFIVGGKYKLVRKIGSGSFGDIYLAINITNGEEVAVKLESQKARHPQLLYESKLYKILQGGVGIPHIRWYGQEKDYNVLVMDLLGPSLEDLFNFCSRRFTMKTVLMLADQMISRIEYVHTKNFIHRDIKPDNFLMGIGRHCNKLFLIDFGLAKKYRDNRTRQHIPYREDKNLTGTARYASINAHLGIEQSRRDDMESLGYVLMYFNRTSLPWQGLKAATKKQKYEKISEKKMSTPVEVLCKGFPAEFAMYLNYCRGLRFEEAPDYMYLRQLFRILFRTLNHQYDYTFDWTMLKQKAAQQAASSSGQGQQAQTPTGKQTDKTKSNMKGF
T5 sequence (Q96SW2 whole entry): as the sequence (Q96SW2 whole entry) above
T5 sequence (Q16531 whole entry partner): as the sequence (Q16531 whole entry partner) above

GSPT1 = target: T6, GSPT1 (Homo sapiens, UniProt P15170+Q96SW2); assay: Western-blot assay, substrate protein degradation in hPBMCs: GSPT1; type: cell-based; details: compounds at 50 nM and 500 nM, 24 hours
T6 construct: effects of the compounds of the present disclosure on the expression of target proteins in cells; endogenous in cells; host or cells: human PBMCs (hPBMCs)
T6 sequence (P15170 whole entry): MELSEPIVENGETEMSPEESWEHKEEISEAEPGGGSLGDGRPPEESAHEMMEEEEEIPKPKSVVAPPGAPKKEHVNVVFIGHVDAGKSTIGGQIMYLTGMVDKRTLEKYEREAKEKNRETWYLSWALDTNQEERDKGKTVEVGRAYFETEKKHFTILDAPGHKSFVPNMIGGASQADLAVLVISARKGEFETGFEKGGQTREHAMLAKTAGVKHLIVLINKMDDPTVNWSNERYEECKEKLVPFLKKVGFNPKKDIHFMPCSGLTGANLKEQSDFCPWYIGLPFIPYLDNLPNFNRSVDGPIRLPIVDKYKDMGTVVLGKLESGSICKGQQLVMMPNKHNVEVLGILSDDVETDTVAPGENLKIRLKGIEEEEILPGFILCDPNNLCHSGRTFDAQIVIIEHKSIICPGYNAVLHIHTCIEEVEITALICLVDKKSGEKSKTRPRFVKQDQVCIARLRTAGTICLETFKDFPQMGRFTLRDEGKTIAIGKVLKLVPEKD
T6 sequence (Q96SW2 whole entry): as the sequence (Q96SW2 whole entry) above
T6 sequence (Q16531 whole entry partner): as the sequence (Q16531 whole entry partner) above

MM.1S = assay: Cell viability assay (CellTiter-Meiluncell Luminescent), tumor cell proliferation, MM.1S; details: Homo sapiens, MM1.S, 96 h, read-out: inhibitory activity (IC50, nM) against tumor cells proliferation, MM.1S
Protocol: The tumor cells used herein were cultured in a cell culture medium listed in table 2 at 37°C in an incubator with 5% CO2. Prior to experimentation, all cell lines used were correctly identified by STR profiling, and tested negative for mycoplasma contamination using a mycoplasma detection kit through routine screenings.
On the following day, the test compounds of the present disclosure were subjected to serial dilution. […] Subsequently, 0.5 µL of the test compound dilution was transferred into the 96-well plate containing the cells, with each well containing 100 µL of cell culture medium. […] Into the 96-well plate, the diluted test compounds and corresponding detection reagents were added, resulting in final test compound concentrations of 500 nM and 10 nM, respectively. The experimental procedure is described below using the diluted 2 µM test compound as an example.
(§1) After the cells were treated with the compounds of the present disclosure for a specified period, the cell viability assay reagent was added to the culture medium according to the kit's instructions to determine cell viability. […] All controls were treated using the same procedure as the compounds of the present disclosure. The growth inhibition curves for the compounds of the present disclosure were plotted using Prism GraphPad software, and the IC50 values were calculated therefrom.

MGC803 = assay: Cell viability assay (CellTiter-Meiluncell Luminescent), tumor cell proliferation, MGC803; details: Homo sapiens, MGC-803, 96 h, read-out: inhibitory activity (IC50, nM) against tumor cells proliferation, MGC803
Protocol: (§2) On the following day, the test compounds of the present disclosure were subjected to serial dilution. […] Subsequently, 0.5 µL of the test compound dilution was transferred into the 96-well plate containing the cells, with each well containing 100 µL of cell culture medium. […] Into the 96-well plate, the diluted test compounds and corresponding detection reagents were added, resulting in final test compound concentrations of 500 nM and 10 nM, respectively.
as §1

Jurkat = assay: Cell viability assay (CellTiter-Meiluncell Luminescent), tumor cell proliferation, Jurkat; details: Homo sapiens, 96 h, read-out: inhibitory activity (IC50, nM) against tumor cells proliferation, Jurkat
Protocol: as §2, §1

Compound	WEE1 substrate protein remaining % (WEE1)	IKZF1 substrate protein remaining % (IKZF1)	IKZF2 substrate protein remaining % (IKZF2)	IKZF3 substrate protein remaining % (IKZF3)	CK1α substrate protein remaining % (CK1α)	GSPT1 substrate protein remaining % (GSPT1)	IC50 (MM.1S) [nM]	IC50 (MGC803) [nM]	IC50 (Jurkat) [nM]
Cc1ccc(C2=CCN(Cc3ccc4c(c3)CN(N3CCC(=O)NC3=O)C4=O)CC2)s1 [GT-04869, 1-(5-((4-(5-methylthiophen-2-yl)-3,6-dihydropyridin-1(2H)-yl)methyl)-1-oxoisoindolin-2-yl)dihydropyrimidine-2,4(1H,3H)-dione]	A ("A" is defined as 0% ≤ substrate protein remaining % ≤ 80%)	A ("A" is defined as 0% ≤ substrate protein remaining % ≤ 80%)	A ("A" is defined as 0% ≤ substrate protein remaining % ≤ 80%)	A ("A" is defined as 0% ≤ substrate protein remaining % ≤ 80%)	B ("B" is defined as 80%< substrate protein remaining %≤ 100%)	A ("A" is defined as 0% ≤ substrate protein remaining % ≤ 80%)	50 to 100	300 to 500	300 to 500
Cc1ccsc1C1=CCN(Cc2ccc3c(c2)CN(N2CCC(=O)NC2=O)C3=O)CC1 [GT-04870, 1-(5-((4-(3-methylthiophen-2-yl)-3,6-dihydropyridin-1(2H)-yl)methyl)-1-oxoisoindolin-2-yl)dihydropyrimidine-2,4(1H,3H)-dione]	A ("A" is defined as 0% ≤ substrate protein remaining % ≤ 80%)	A ("A" is defined as 0% ≤ substrate protein remaining % ≤ 80%)	A ("A" is defined as 0% ≤ substrate protein remaining % ≤ 80%)	A ("A" is defined as 0% ≤ substrate protein remaining % ≤ 80%)	B ("B" is defined as 80%< substrate protein remaining %≤ 100%)	A ("A" is defined as 0% ≤ substrate protein remaining % ≤ 80%)	50 to 100	100 to 300	100 to 300
O=C1CCN(N2Cc3cc(CN4CC=C(c5ccsc5)CC4)ccc3C2=O)C(=O)N1 [GT-04871, 1-(1-oxo-5-((4-(thiophen-3-yl)-3,6-dihydropyridin-1(2H)-yl)methyl)isoindolin-2-yl)dihydropyrimidine-2,4(1H,3H)-dione]	A ("A" is defined as 0% ≤ substrate protein remaining % ≤ 80%)	A ("A" is defined as 0% ≤ substrate protein remaining % ≤ 80%)	B ("B" is defined as 80%< substrate protein remaining %≤ 100%)	B ("B" is defined as 80%< substrate protein remaining %≤ 100%)	B ("B" is defined as 80%< substrate protein remaining %≤ 100%)	A ("A" is defined as 0% ≤ substrate protein remaining % ≤ 80%)	100 to 300	300 to 500	300 to 500
Cc1cscc1C1=CCN(Cc2ccc3c(c2)CN(N2CCC(=O)NC2=O)C3=O)CC1 [GT-04872, 1-(5-((4-(4-methylthiophen-3-yl)-3,6-dihydropyridin-1(2H)-yl)methyl)-1-oxoisoindolin-2-yl)dihydropyrimidine-2,4(1H,3H)-dione]	A ("A" is defined as 0% ≤ substrate protein remaining % ≤ 80%)	A ("A" is defined as 0% ≤ substrate protein remaining % ≤ 80%)	B ("B" is defined as 80%< substrate protein remaining %≤ 100%)	B ("B" is defined as 80%< substrate protein remaining %≤ 100%)	B ("B" is defined as 80%< substrate protein remaining %≤ 100%)	A ("A" is defined as 0% ≤ substrate protein remaining % ≤ 80%)	10 to 50	100 to 300	100 to 300
Cc1cc(C2=CCN(Cc3ccc4c(c3)CN(N3CCC(=O)NC3=O)C4=O)CC2)cs1 [GT-04873, 1-(5-((4-(5-methylthiophen-3-yl)-3,6-dihydropyridin-1(2H)-yl)methyl)-1-oxoisoindolin-2-yl)dihydropyrimidine-2,4(1H,3H)-dione]	A ("A" is defined as 0% ≤ substrate protein remaining % ≤ 80%)	A ("A" is defined as 0% ≤ substrate protein remaining % ≤ 80%)	B ("B" is defined as 80%< substrate protein remaining %≤ 100%)	A ("A" is defined as 0% ≤ substrate protein remaining % ≤ 80%)	B ("B" is defined as 80%< substrate protein remaining %≤ 100%)	A ("A" is defined as 0% ≤ substrate protein remaining % ≤ 80%)	50 to 100	100 to 300	100 to 300
O=C1CCN(N2Cc3cc(CN4CCN(C(c5ccccc5)c5ccccc5)CC4)ccc3C2=O)C(=O)N1 [GT-04889, 1-(5-((4-benzhydrylpiperazin-1-yl)methyl)-1-oxoisoindolin-2-yl)dihydropyrimidine-2,4(1H,3H)-dione]	A ("A" is defined as 0% ≤ substrate protein remaining % ≤ 80%)	A ("A" is defined as 0% ≤ substrate protein remaining % ≤ 80%)	A ("A" is defined as 0% ≤ substrate protein remaining % ≤ 80%)	A ("A" is defined as 0% ≤ substrate protein remaining % ≤ 80%)	B ("B" is defined as 80%< substrate protein remaining %≤ 100%)	A ("A" is defined as 0% ≤ substrate protein remaining % ≤ 80%)	100 to 300	300 to 500	300 to 500
O=C1CCN(N2Cc3cc(CN4CCC(N(c5ccccc5)c5ccccc5)CC4)ccc3C2=O)C(=O)N1 [GT-04939, 1-(5-((4-(diphenylamino)piperidin-1-yl)methyl)-1-oxoisoindolin-2-yl)dihydropyrimidine-2,4(1H,3H)-dione]	A ("A" is defined as 0% ≤ substrate protein remaining % ≤ 80%)	A ("A" is defined as 0% ≤ substrate protein remaining % ≤ 80%)	A ("A" is defined as 0% ≤ substrate protein remaining % ≤ 80%)	A ("A" is defined as 0% ≤ substrate protein remaining % ≤ 80%)	A ("A" is defined as 0% ≤ substrate protein remaining % ≤ 80%)	A ("A" is defined as 0% ≤ substrate protein remaining % ≤ 80%)	10 to 50	100 to 300	100 to 300
O=C1CCN(N2Cc3cc(CN4CCC(N(c5ccccc5)c5ccccn5)CC4)ccc3C2=O)C(=O)N1 [GT-04940, 1-(1-oxo-5-((4-(phenyl(pyridin-2-yl)amino)piperidin-1-yl)methyl)isoindolin-2-yl)dihydropyrimidine-2,4(1H,3H)-dione]	A ("A" is defined as 0% ≤ substrate protein remaining % ≤ 80%)	A ("A" is defined as 0% ≤ substrate protein remaining % ≤ 80%)	A ("A" is defined as 0% ≤ substrate protein remaining % ≤ 80%)	A ("A" is defined as 0% ≤ substrate protein remaining % ≤ 80%)	A ("A" is defined as 0% ≤ substrate protein remaining % ≤ 80%)	A ("A" is defined as 0% ≤ substrate protein remaining % ≤ 80%)	50 to 100	100 to 300	100 to 300
O=C1CCN(N2Cc3cc(CN4CCC(Nc5ccccc5-c5ccc(Cl)cc5)CC4)ccc3C2=O)C(=O)N1 [GT-04943, 1-(5-((4-((4'-chloro-[1,1'-biphenyl]-2-yl)amino)piperidin-1-yl)methyl)-1-oxoisoindolin-2-yl)dihydropyrimidine-2,4(1H,3H)-dione]	A ("A" is defined as 0% ≤ substrate protein remaining % ≤ 80%)	A ("A" is defined as 0% ≤ substrate protein remaining % ≤ 80%)	A ("A" is defined as 0% ≤ substrate protein remaining % ≤ 80%)	A ("A" is defined as 0% ≤ substrate protein remaining % ≤ 80%)	B ("B" is defined as 80%< substrate protein remaining %≤ 100%)	A ("A" is defined as 0% ≤ substrate protein remaining % ≤ 80%)	10 to 50	100 to 300	100 to 300
